# Data: patent US20060276412A1, “METHODS AND COMPOSITIONS FOR MANAGING PSYCHOTIC DISORDERS” (priority 2005, published 2006)
# Key:
# serotonin receptors = conditions: cited from earlier work
# [1] = tested on: alpha-adrenergic receptors; conditions: cited from earlier work
# histaminic receptors = conditions: cited from earlier work
# dopamine receptors = conditions: cited from earlier work
# [2] = tested on: serotonin (5HT) in medial prefrontal cortex; test: Brain microdialysis: serotonin in mPFC; assay type: in vivo, rats; conditions: 3 mg/kg olanzapine
# Description: (§1) 62 adult Sprague-Dawley male rats (Harland, Indianapolis) weighing 300-350 g were used in the following studies. The rats were quarantined for at least five days in group housing. Following the quarantine procedure, rats were maintained in individual cages. For surgical implantation with intracerebral guides, guides were inserted directly above either the hypothalamus (HT) (31 rats), or the medial prefrontal cortex (mPFC) (31 rats). Stereotaxic coordinates (Paxinos and Watson, 1986) provided below were used to position the guide cannulae and/or probes: Animals were anesthetiszed according using standard procedures. The head of each animal was shaved from the front of the eyes to the back of the skull. Shaved areas were disinfected, and the animals were placed in stereotaxic frame ear bars. The animal was aligned with the incisor bar. The animal's scalp was cut with a sharp #15 scalpel blade. If the bone began to bleed, bone wax was applied to the incision. Periosteal tissue was cleaned from the skull to the lateral ridges with a cotton swab, and clamps were used to pull the skin out of the way. The probe or guide was placed in the clamp, such that the angled outlet cannula of the microdialysis probe was angled towards the animal's tail. The target coordinates were calculated, and this point was marked on the skull. Two holes in opposing skull bones were drilled for bone anchor screws and thread screws. The dura was torn away with a sharp, pointed object. The guide cannulae were placed at the dorsal/ventral zero point. […] Using dental acrylic, the cannulae were cemented to the bone anchor screws. The cement was allowed to harden and the rodent was removed from the stereotaxic frame. The cranial and caudal aspects of the incision were sutured. The animals were allowed to recover for three to five days. Stylets in the guides were replaced with dialysis probes on the evening prior to study to allow for animal acclimation and to reestablish the integrity of the blood brain barrier. […] Rats were weighed pre-surgery, every 1-2 days post-surgery until time of microdialysis, and postmortem. Microdialysis probes used in the experiments described below were first soaked in standard Ringer's perfusion medium for 30 minutes. Inlet and outlet tubing was connected to each probe using flanged connectors. The outlet tubing was connected to a fraction collector, and the inlet was connected to and […] syringe drive. The probes were immersed in fresh Ringer's solution and flushed with Ringer's perfusion medium at a rate of 2 μl/min for 1 hour. The probe was then transferred to the intracerebral guide on the rat's skull. […] Water was added to obtain a final concentration of 0.3 mg/ml. […] Zonisamide was dissolved in DMSO. […] The final concentration of zonisamide was 7.5 mg/ml. The drug solution was maintained at 37° C. prior to injection. The rats were divided into ten test groups. Five animals were analyzed for each test group. The test groups were as follows: For the microdialysis experiments, perfusion consisted of 2 μl/min delivery of sterile standard Ringer's solution for intervals of 20 minutes. Final collection volumes were 40 μl. 30 μl samples were analyzed for each analyte: DA, NE, 5HT. 12 pre-dose samples and 12 post dose samples were collected every 20 minutes for a duration of 4 hours, both pre-dose and post-dose. Six samples from the pre-dose and post-dose collections were analyzed for norepinephrine. The remaining six samples from the pre-dose and post-dose collections were analyzed for both dopamine and serotonin. Samples were chilled to -80° C. immediately following collection. The samples were analyzed using liquid chromatography with electrochemical detection using conventional techniques. See, e.g., Huang, T., R. et al. (1994) New […] Microbore Columns for Liquid Chromatography. Current Separations 12(4): 191-195. […] Concentrations of each compound are expressed as % baseline.
# [3] = tested on: dopamine (DA) in medial prefrontal cortex; test: Brain microdialysis: dopamine in mPFC; assay type: in vivo, rats; conditions: 3 mg/kg olanzapine
# Description: as §1
# [4] = cited from earlier work
# [5] = tested on: serotonin (5HT) in hypothalamus; test: Brain microdialysis: serotonin in hypothalamus; assay type: in vivo, rats; conditions: 3 mg/kg olanzapine
# Description: as §1
# [6] = tested on: dopamine (DA) in hypothalamus; test: Brain microdialysis: dopamine in hypothalamus; assay type: in vivo, rats; conditions: 3 mg/kg olanzapine
# Description: as §1
# [7] = tested on: norepinephrine (NE) in medial prefrontal cortex; test: Brain microdialysis: norepinephrine in mPFC; assay type: in vivo, rats; conditions: 3 mg/kg olanzapine
# Description: as §1
# [8] = tested on: norepinephrine (NE) in hypothalamus; test: Brain microdialysis: norepinephrine in hypothalamus; assay type: in vivo, rats; conditions: 3 mg/kg olanzapine
# Description: as §1
smiles,measurement,setting,value
O=C1Cc2cc(CCN3CCN(c4nsc5ccccc45)CC3)c(Cl)cc2N1 [ziprasidone],affinity for serotonin receptors,serotonin receptors,high affinity
same,affinity for alpha-adrenergic receptors,[1],high affinity
same,affinity for histaminic receptors,histaminic receptors,medium affinity
same,affinity for dopamine receptors,dopamine receptors,high affinity
Cc1cc2c(s1)Nc1ccccc1N=C2N1CCN(C)CC1 [olanzapine],Serotonin concentrations in mPFC,[2]; 3 HOUR AVE,88.1078 % baseline
same,Serotonin concentrations in mPFC,[2]; 40 min post dose,115.609 % baseline
same,Serotonin concentrations in mPFC,[2]; 80 min post dose,101.724 % baseline
same,Serotonin concentrations in mPFC,[2]; 120 min post dose,88.189 % baseline
same,Serotonin concentrations in mPFC,[2]; 160 min post dose,92.085 % baseline
same,Serotonin concentrations in mPFC,[2]; 200 min post dose,119.171 % baseline
same,Serotonin concentrations in mPFC,[2]; 240 min post dose,83.828 % baseline
same,Serotonin concentrations in mPFC,[2]; -20 min pre dose,98.453 % baseline
same,Serotonin concentrations in mPFC,[2]; -60 min pre dose,100.982 % baseline
same,Serotonin concentrations in mPFC,[2]; -100 min pre dose,100.565 % baseline
same,Dopamine concentrations in mPFC,[3]; 3 HOUR AVE,209.94 % baseline
same,Dopamine concentrations in mPFC,[3]; 40 min post dose,227.023 % baseline
same,Dopamine concentrations in mPFC,[3]; 80 min post dose,266.655 % baseline
same,Dopamine concentrations in mPFC,[3]; 120 min post dose,219.135 % baseline
same,Dopamine concentrations in mPFC,[3]; 160 min post dose,186.256 % baseline
same,Dopamine concentrations in mPFC,[3]; 200 min post dose,202.788 % baseline
same,Dopamine concentrations in mPFC,[3]; 240 min post dose,153.048 % baseline
same,Dopamine concentrations in mPFC,[3]; -20 min pre dose,105.509 % baseline
same,Dopamine concentrations in mPFC,[3]; -60 min pre dose,119.009 % baseline
same,Dopamine concentrations in mPFC,[3]; -100 min pre dose,75.482 % baseline
same,patients with a weight gain of ≧7%,[4]; analysis of four studies of various durations,40%
same,time at which induced weight gain peaks,[4]; noticeable in the first month of treatment,about 9 months
same,Serotonin concentrations in hypothalamus,[5]; 3 HOUR AVE,89.0647 % baseline
same,Serotonin concentrations in hypothalamus,[5]; 40 min post dose,89.816 % baseline
same,Serotonin concentrations in hypothalamus,[5]; 80 min post dose,86.183 % baseline
same,Serotonin concentrations in hypothalamus,[5]; 120 min post dose,92.131 % baseline
same,Serotonin concentrations in hypothalamus,[5]; 160 min post dose,80.560 % baseline
same,Serotonin concentrations in hypothalamus,[5]; 200 min post dose,98.707 % baseline
same,Serotonin concentrations in hypothalamus,[5]; 240 min post dose,88.921 % baseline
same,Serotonin concentrations in hypothalamus,[5]; -20 min pre dose,107.440 % baseline
same,Serotonin concentrations in hypothalamus,[5]; -60 min pre dose,98.601 % baseline
same,Serotonin concentrations in hypothalamus,[5]; -100 min pre dose,93.959 % baseline
same,Dopamine concentrations in hypothalamus,[6]; 3 HOUR AVE,125.98 % baseline
same,Dopamine concentrations in hypothalamus,[6]; 40 min post dose,156.507 % baseline
same,Dopamine concentrations in hypothalamus,[6]; 80 min post dose,110.363 % baseline
same,Dopamine concentrations in hypothalamus,[6]; 120 min post dose,183.338 % baseline
same,Dopamine concentrations in hypothalamus,[6]; 160 min post dose,89.032 % baseline
same,Dopamine concentrations in hypothalamus,[6]; 200 min post dose,113.293 % baseline
same,Dopamine concentrations in hypothalamus,[6]; 240 min post dose,95.959 % baseline
same,Dopamine concentrations in hypothalamus,[6]; -20 min pre dose,99.830 % baseline
same,Dopamine concentrations in hypothalamus,[6]; -60 min pre dose,93.473 % baseline
same,Dopamine concentrations in hypothalamus,[6]; -100 min pre dose,106.697 % baseline
same,affinity for serotonin receptors,serotonin receptors,high affinity
same,Norepinephrine concentrations in mPFC,[7]; 3 HOUR AVE,154.642 % baseline
same,Norepinephrine concentrations in mPFC,[7]; 20 min post dose,162.923 % baseline
same,Norepinephrine concentrations in mPFC,[7]; 60 min post dose,197.693 % baseline
same,Norepinephrine concentrations in mPFC,[7]; 100 min post dose,159.929 % baseline
same,Norepinephrine concentrations in mPFC,[7]; 140 min post dose,141.759 % baseline
same,Norepinephrine concentrations in mPFC,[7]; 180 min post dose,147.978 % baseline
same,Norepinephrine concentrations in mPFC,[7]; 220 min post dose,117.569 % baseline
same,Norepinephrine concentrations in mPFC,[7]; -40 min pre dose,98.000 % baseline
same,Norepinephrine concentrations in mPFC,[7]; -80 min pre dose,119.880 % baseline
same,Norepinephrine concentrations in mPFC,[7]; -120 min pre dose,82.120 % baseline
same,affinity for alpha-adrenergic receptors,[1],lower affinity
same,Norepinephrine concentrations in hypothalamus,[8]; 3 HOUR AVE,129.18 % baseline
same,Norepinephrine concentrations in hypothalamus,[8]; 20 min post dose,161.934 % baseline
same,Norepinephrine concentrations in hypothalamus,[8]; 60 min post dose,148.422 % baseline
same,Norepinephrine concentrations in hypothalamus,[8]; 100 min post dose,115.418 % baseline
same,Norepinephrine concentrations in hypothalamus,[8]; 140 min post dose,118.651 % baseline
same,Norepinephrine concentrations in hypothalamus,[8]; 180 min post dose,113.533 % baseline
same,Norepinephrine concentrations in hypothalamus,[8]; 220 min post dose,115.014 % baseline
same,Norepinephrine concentrations in hypothalamus,[8]; -40 min pre dose,105.631 % baseline
same,Norepinephrine concentrations in hypothalamus,[8]; -80 min pre dose,103.272 % baseline
same,Norepinephrine concentrations in hypothalamus,[8]; -120 min pre dose,91.097 % baseline
same,affinity for histaminic receptors,histaminic receptors,lower affinity
same,affinity for dopamine receptors,dopamine receptors,high affinity
